Assays:
CYP1A2 = target: T1, CYP1A2 (Homo sapiens, UniProt P05177); test: CYP inhibition assay, 7-ethoxyresorufin O-deethylation; type: in vitro ADME; conditions: pooled human liver microsomes, probe 7-ethoxyresorufin (O-deethylation), 0.5 μmol/L, pooled human hepatic microsome
T1 construct: enzyme, pooled human hepatic microsome 0.2 mg protein/mL; from tissue; host or cells: pooled human liver microsomes
T1 sequence (P05177 1-516): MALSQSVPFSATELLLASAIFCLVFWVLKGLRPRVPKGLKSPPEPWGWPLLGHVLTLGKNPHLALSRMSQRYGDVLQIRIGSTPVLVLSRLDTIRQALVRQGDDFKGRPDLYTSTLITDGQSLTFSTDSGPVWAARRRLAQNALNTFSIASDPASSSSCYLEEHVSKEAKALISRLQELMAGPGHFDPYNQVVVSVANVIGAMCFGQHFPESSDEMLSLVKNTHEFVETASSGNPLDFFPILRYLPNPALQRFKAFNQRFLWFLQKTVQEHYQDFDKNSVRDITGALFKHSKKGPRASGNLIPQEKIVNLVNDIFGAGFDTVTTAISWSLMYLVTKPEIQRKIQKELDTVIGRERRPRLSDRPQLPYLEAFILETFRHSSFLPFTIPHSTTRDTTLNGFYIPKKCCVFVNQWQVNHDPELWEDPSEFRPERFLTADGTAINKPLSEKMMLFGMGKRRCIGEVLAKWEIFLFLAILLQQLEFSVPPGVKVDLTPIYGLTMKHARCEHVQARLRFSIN
Method: (§1) Using commercially available pooled human hepatic microsome, and employing, as markers, 7-ethoxyresorufin O-deethylation (CYP1A2), tolbutamide methyl-hydroxylation (CYP2C9), mephenytoin 4′-hydroxylation (CYP2C19), dextromethorphan O-demethylation (CYP2D6), and terfenedine hydroxylation (CYP3A4) as typical substrate metabolism reactions of human main five CYP enzyme forms (CYP1A2, 2C9, 2C19, 2D6, 3A4), an inhibitory degree of each metabolite production amount by a test compound was assessed.
(§2) The reaction conditions were as follows: substrate, 0.5 μmol/L ethoxyresorufin (CYP1A2), 100 μmol/L tolbutamide (CYP2C9), 50 μmol/L S-mephenytoin (CYP2C19), 5 μmol/L dextromethorphan (CYP2D6), 1 μmol/L terfenedine (CYP3A4); reaction time, 15 minutes; reaction temperature, 37° C.; enzyme, pooled human hepatic microsome 0.2 mg protein/mL; test drug concentration, 1, 5, 10, 20 μmol/L (four points).
(§3) Each five kinds of substrates, human hepatic microsome, and a test drug in 50 mmol/L Hepes buffer as a reaction solution was added to a 96-well plate as the composition as described above, NADPH, as a cofactor was added to initiate metabolism reactions as markers and, after the incubation at 37° C. for 15 minutes, a methanol/acetonitrile=1/1 (v/v) solution was added to stop the reaction. After the centrifugation at 3000 rpm for 15 minutes, resorufin (CYP1A2 metabolite) in the supernatant was quantified by a fluorescent multilabel counter and tolbutamide hydroxide (CYP2C9 metabolite), mephenytoin 4′ hydroxide (CYP2C19 metabolite), dextrorphan (CYP2D6 metabolite), and terfenadine alcohol (CYP3A4 metabolite) were quantified by LC/MS/MS.
(§4) A reaction system containing only DMSO which is a solvent for dissolving a drug was adopted as a control (100%), and the remaining activity (%) was calculated, then IC50 was calculated by reverse presumption with a logistic model using a concentration and an inhibition rate.

CYP2C19 = target: T2, CYP2C19 (Homo sapiens, UniProt P33261); test: CYP inhibition assay, mephenytoin 4'-hydroxylation; type: in vitro ADME; conditions: pooled human liver microsomes, probe S-mephenytoin (4'-hydroxylation), 50 μmol/L, pooled human hepatic microsome
T2 construct: enzyme, pooled human hepatic microsome 0.2 mg protein/mL; from tissue; host or cells: pooled human liver microsomes
Method: as §1, §2, §3, §4

CYP2D6 = target: T3, CYP2D6 (Homo sapiens, UniProt P10635); test: CYP inhibition assay, dextromethorphan O-demethylation; type: in vitro ADME; conditions: pooled human liver microsomes, probe dextromethorphan (O-demethylation), 5 μmol/L, pooled human hepatic microsome
T3 construct: enzyme, pooled human hepatic microsome 0.2 mg protein/mL; from tissue; host or cells: pooled human liver microsomes
Method: as §1, §2, §3, §4

CYP3A4 = target: T4, CYP3A4 (Homo sapiens, UniProt P08684); test: CYP inhibition assay, terfenedine hydroxylation; type: in vitro ADME; conditions: pooled human liver microsomes, probe terfenedine (hydroxylation), 1 μmol/L, pooled human hepatic microsome
T4 construct: enzyme, pooled human hepatic microsome 0.2 mg protein/mL; from tissue; host or cells: pooled human liver microsomes
Method: as §1, §2, §3, §4

[1] = Solubility test, 1% DMSO addition, artificial intestinal juice pH 6.8; type: physicochemical; conditions: artificial intestinal juice with 1% DMSO, fassgf or other biorelevant, kinetic from dmso stock; pH 6.8, 1% DMSO addition, 16 hours at 25° C.
Method: The solubility of each compound was determined under 1% DMSO addition conditions. A 10 mmol/L solution of the compound was prepared with DMSO, and 6 μL of the solution was added to 594 μL of an artificial intestinal juice (water and a 118 mL solution of 0.2 mol/L NaOH reagent are added to 250 mL of 0.2 mol/L potassium dihydrogen phosphate reagent to reach 1000 mL) with a pH of 6.8. The mixture is left standing for 16 hours at 25° C., and the mixture is vacuum-filtered. The filtrate is two-fold diluted with methanol/water=1/1 (v/v), and the compound concentration in the filtrate is measured with HPLC or LC/MS/MS by the absolute calibration method.

HIV (HTLV-III B strain) = test: HIV replication inhibition assay (MTT, MT-4 cells); type: cell-based; conditions: Human immunodeficiency virus 1, MT4, 96 h, four days culture, concentration at which cell cytotoxicity by virus is inhibited 50%
Method: HIV (HTLV-III B strain) persistent infected human T cell strain Molt-4 clone 8 was cultured in 10% Fetal Bovine Serum-containing RPMI-1640 medium and the supernatant was filtrated, then the virus titer was measured and the solution was stored at −80° C. Each anti-human immunodeficiency virus active substance was diluted with the above cultured medium to the designated concentration, which was dispensed into 96 well micro plate by 50 μL. Next, a MT-4 cell suspended liquid was dispensed by 100 μL (2.5×10^4 cells), then the above HIV-containing supernatant diluted with the above cultured medium was added thereto by 50 μL (60 pfu (plaque forming unit)).
The obtained mixture was cultured at 37° C. in CO2 incubator for four days, then 3-(4,5-dimehylthiazole-2-yl)-2,5-diphenyltetrazolynium bromide (MTT) 5 mg/mL in PBS was added to each well by 30 μL, followed by 1 hr-cultivation. In this step, as formazan was precipitated by reduction of MTT in living cells, the cell supernatant was removed from all well by 150 μL, then a 150 μL of solution (10% Triton X-100 and […]) was added thereto, followed by shaking with a plate mixer, to elute formazan. The formazan was measured with a microreader at OD: 560 nm and 690 nm (wavelength) and the result was compared with the reference. EC50 means the compound concentration at which cell cytotoxicity by virus is inhibited 50%.

T4 sequence (P08684 whole entry): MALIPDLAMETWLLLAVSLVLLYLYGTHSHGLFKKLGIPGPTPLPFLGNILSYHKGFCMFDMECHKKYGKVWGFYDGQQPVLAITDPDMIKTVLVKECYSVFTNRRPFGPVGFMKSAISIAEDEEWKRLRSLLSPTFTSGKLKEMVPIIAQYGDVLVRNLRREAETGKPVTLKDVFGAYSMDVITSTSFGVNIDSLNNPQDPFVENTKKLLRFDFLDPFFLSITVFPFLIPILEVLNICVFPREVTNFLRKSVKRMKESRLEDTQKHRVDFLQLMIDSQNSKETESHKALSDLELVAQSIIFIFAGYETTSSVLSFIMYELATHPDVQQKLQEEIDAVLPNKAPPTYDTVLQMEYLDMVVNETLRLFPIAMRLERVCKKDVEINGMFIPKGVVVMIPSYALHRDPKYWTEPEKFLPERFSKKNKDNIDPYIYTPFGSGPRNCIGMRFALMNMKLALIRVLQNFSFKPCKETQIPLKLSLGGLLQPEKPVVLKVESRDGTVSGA
T2 sequence (P33261 whole entry): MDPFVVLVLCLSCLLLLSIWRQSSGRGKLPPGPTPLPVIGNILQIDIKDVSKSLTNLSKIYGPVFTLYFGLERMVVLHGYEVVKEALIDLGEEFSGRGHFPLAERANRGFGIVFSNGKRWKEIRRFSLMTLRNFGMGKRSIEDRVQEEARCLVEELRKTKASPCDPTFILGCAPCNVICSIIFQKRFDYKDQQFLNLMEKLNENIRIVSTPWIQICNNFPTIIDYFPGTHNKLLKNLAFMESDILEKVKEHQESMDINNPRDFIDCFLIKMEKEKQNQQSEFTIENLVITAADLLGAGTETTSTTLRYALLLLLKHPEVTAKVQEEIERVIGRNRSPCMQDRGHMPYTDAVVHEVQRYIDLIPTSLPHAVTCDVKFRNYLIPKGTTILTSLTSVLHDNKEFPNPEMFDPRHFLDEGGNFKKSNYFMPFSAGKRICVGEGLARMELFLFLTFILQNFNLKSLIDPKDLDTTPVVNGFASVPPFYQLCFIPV
T3 sequence (P10635 whole entry): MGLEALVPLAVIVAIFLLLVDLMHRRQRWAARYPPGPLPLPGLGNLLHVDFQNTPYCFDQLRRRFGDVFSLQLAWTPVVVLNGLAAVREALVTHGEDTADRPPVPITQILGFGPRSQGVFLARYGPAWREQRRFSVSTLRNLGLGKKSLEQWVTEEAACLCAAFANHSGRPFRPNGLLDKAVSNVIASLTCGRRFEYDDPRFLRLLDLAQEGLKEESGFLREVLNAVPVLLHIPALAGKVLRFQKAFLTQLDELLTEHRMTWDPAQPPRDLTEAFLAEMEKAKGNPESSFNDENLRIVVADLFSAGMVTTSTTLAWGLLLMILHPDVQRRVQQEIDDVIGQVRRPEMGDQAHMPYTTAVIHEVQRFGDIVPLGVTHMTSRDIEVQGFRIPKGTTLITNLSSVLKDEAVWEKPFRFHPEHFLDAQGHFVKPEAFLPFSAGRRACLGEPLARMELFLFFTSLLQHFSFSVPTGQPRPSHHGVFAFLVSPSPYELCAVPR

SMILES	IC50 at 15 min (CYP1A2)	IC50 at 15 min (CYP2C19)	IC50 at 15 min (CYP2D6)	IC50 at 15 min (CYP3A4)	solubility at 16 h [1]	EC50 (HIV (HTLV-III B strain))
Cc1ccc(-c2c(N)cc(C(OC(C)(C)C)C(=O)O)c(-c3ccc(C)c(C)c3)c2C)cc1C (stereo not shown) [Compound I-2]	≥ 20 µM	≥ 20 µM	≥ 20 µM	≥ 20 µM	≥ 50 µM	–
CC(=O)Nc1cc(C(OC(C)(C)C)C(=O)O)c(-c2ccc(C)c(C)c2)c(C)c1-c1ccc(C)c(C)c1 (stereo not shown) [Compound I-3]	≥ 20 µM	≥ 20 µM	≥ 20 µM	≥ 20 µM	≥ 50 µM	–
CC(=O)Nc1c(Br)c(C(OC(C)(C)C)C(=O)O)c(-c2ccc(C)c(C)c2)c(C)c1-c1ccc(C)c(C)c1 (stereo not shown) [Compound I-4]	≥ 20 µM	≥ 20 µM	≥ 20 µM	≥ 20 µM	≥ 50 µM	13 nM
COC(=O)Nc1cc(C(OC(C)(C)C)C(=O)O)c(-c2ccc(C)c(C)c2)c(C)c1-c1ccc(C)c(C)c1 (stereo not shown) [Compound I-5]	≥ 20 µM	≥ 20 µM	≥ 20 µM	≥ 20 µM	–	–
Cc1ccc(-c2c(C)c(-c3ccc(C)c(C)c3)c(C(OC(C)(C)C)C(=O)O)c(C)c2N)cc1C (stereo not shown) [Compound I-7]	≥ 20 µM	≥ 20 µM	≥ 20 µM	≥ 20 µM	–	18 nM
CC(=O)N(C)c1c(C)c(C(OC(C)(C)C)C(=O)O)c(-c2ccc(C)c(C)c2)c(C)c1-c1ccc(C)c(C)c1 (stereo not shown) [Compound I-8]	≥ 20 µM	≥ 20 µM	≥ 20 µM	≥ 20 µM	–	–
Cc1ccc(-c2c(C(OC(C)(C)C)C(=O)O)cc(N(C)C(=O)C(C)C)c(-c3ccc(C)c(C)c3)c2C)cc1C (stereo not shown) [Compound I-9]	≥ 20 µM	≥ 20 µM	≥ 20 µM	≥ 20 µM	–	–
Cc1ccc(-c2c(NC(=O)C(C)C)cc(C(OC(C)(C)C)C(=O)O)c(-c3ccc(C)c(C)c3)c2C)cc1C (stereo not shown) [Compound I-10]	≥ 20 µM	≥ 20 µM	≥ 20 µM	≥ 20 µM	≥ 50 µM	–
CNc1c(C)c(C(OC(C)(C)C)C(=O)O)c(-c2ccc(C)c(C)c2)c(C)c1-c1ccc(C)c(C)c1 (stereo not shown) [Compound I-14]	–	–	–	–	–	19 nM
Cc1cc(NS(=O)(=O)c2cccc3ccccc23)c(C)c(C(OC(C)(C)C)C(=O)O)c1-c1ccc2c(c1)CCCO2 (stereo not shown) [Compound I-60]	–	–	–	–	–	4 nM
Cc1cc(NS(=O)(=O)c2cccc3cccnc23)c(C)c(C(OC(C)(C)C)C(=O)O)c1-c1ccc2c(c1)CCCO2 (stereo not shown) [Compound I-66]	–	–	–	–	–	4.5 nM
Cc1cc(NS(=O)(=O)CC2CCCCC2)c(C)c(C(OC(C)(C)C)C(=O)O)c1-c1ccc2c(c1)CCCO2 (stereo not shown) [Compound I-82]	–	–	–	–	–	4.1 nM
Cc1cc(NS(=O)(=O)c2cccc(Cl)c2Cl)c(C)c(C(OC(C)(C)C)C(=O)O)c1-c1ccc2c(c1)CCCO2 (stereo not shown) [Compound I-121]	–	–	–	–	–	5.2 nM
Cc1c(-c2c(C)c(C)c(NS(=O)(=O)c3cccc4ccccc34)c(C)c2C(OC(C)(C)C)C(=O)O)ccc2c1CCCO2 (stereo not shown) [Compound I-140]	–	–	–	–	–	1.9 nM
Cc1c(-c2c(C)c(C)c(NS(=O)(=O)c3cccc4ccccc34)c(C)c2[C@H](OC(C)(C)C)C(=O)O)ccc2c1CCCO2 [Compound I-145]	–	–	–	–	–	1.2 nM
Cc1cc(NS(=O)(=O)CC2CCCCC2)c(C)c(C(OC(C)(C)C)C(=O)O)c1-c1ccc2c(c1C)CCCO2 (stereo not shown) [Compound I-150]	–	–	–	–	–	2.3 nM
Cc1ccc(-c2c(C)c(C3=CCCCCC3)c(C(OC(C)(C)C)C(=O)O)c(C)c2NS(C)(=O)=O)cc1C (stereo not shown) [Compound I-168]	–	–	–	–	–	3.9 nM
Cc1ccc(-c2c(C)c(-c3ccc4c(c3C)CCCO4)c(C(OC(C)(C)C)C(=O)O)c(C)c2NS(C)(=O)=O)cc1C (stereo not shown) [Compound I-215]	–	–	–	–	–	2.2 nM
Cc1c(OCc2ccccc2)c(N(C)S(C)(=O)=O)c(C)c(C(OC(C)(C)C)C(=O)O)c1-c1ccc2c(c1)CCCO2 (stereo not shown) [Compound I-263]	–	–	–	–	–	2.5 nM
COc1ccc(-c2c(C)cc(NS(=O)(=O)CC3CCCCC3)c(C)c2C(OC(C)(C)C)C(=O)O)cc1 (stereo not shown) [Compound I-285]	–	–	–	–	–	4.5 nM
Cc1cc(-c2c(C)c(-c3ccc4c(c3C)CCCO4)c([C@H](OC(C)(C)C)C(=O)O)c(C)c2NS(C)(=O)=O)ccc1F [Compound I-305]	–	–	–	–	–	2 nM
Cc1cc(-c2c(C)c(-c3cc(F)c4c(c3C)CCCO4)c([C@H](OC(C)(C)C)C(=O)O)c(C)c2NS(C)(=O)=O)ccc1F [Compound I-310]	–	–	–	–	–	4 nM
Cc1cc2c(c(C(OC(C)(C)C)C(=O)O)c1-c1ccc3c(c1)CCCO3)CCCN2S(=O)(=O)c1cccc2ccccc12 (stereo not shown) [II-14]	–	–	–	–	–	4.8 nM
Cc1cc2c(c(C(OC(C)(C)C)C(=O)O)c1-c1ccc3c(c1)CCCO3)CCCN2S(=O)(=O)c1cccc2cccnc12 (stereo not shown) [II-17]	–	–	–	–	–	2.5 nM
Cc1ccc(-c2c(C)c(-c3ccc(C)c(C)c3)c3c(c2[C@H](OC(C)(C)C)C(=O)O)CCC(=O)N3C)cc1C [II-42]	–	–	–	–	–	4.4 nM
